Source: patent US10662164B2, “Non-beta lactam antibiotics” (University of Notre Dame du Lac, priority 2014, dated 2020)
Converted amounts (≈) assume the structure as drawn. Read-outs that look alike come from different tables or passages of the source.

Experiments:
[1] = Plasma protein binding, equilibrium dialysis; conditions: 10 μM, 37° C., 6 h
Protocol: Protein binding for compounds 60b, 60c, 65b, 66b, 75b and 76b was determined in human plasma using equilibrium dialysis.
Plasma protein binding was determined using human plasma and a rapid equilibrium dialysis device (Pierce Biotechnology, Thermo Scientific, Waltham, Mass., USA). Human plasma was thawed and centrifuged at 1200 g for 10 min to remove particulates. A […] aliquot of human plasma was added to the sample chamber and 350 μL of 0.1 M phosphate buffered saline (pH 7.4) containing […] sodium chloride was added to the adjacent chamber. A 2-μL aliquot of a stock solution of the compounds at a concentration of 1 mM in DMSO was diluted with human plasma to a final drug concentration of 10 μM and added to the sample chamber. The compounds were dialyzed at 37° C. in an orbital shaker for 6 h. Aliquots (50 μL) were taken from the buffer chamber (representing the free concentration) and from the plasma chamber (representing the total concentration) and mixed with 100 μL of internal standard in acetonitrile to a final concentration of 5 μM. Samples were analyzed by UPLC with UV detection at 285 nm. The plasma protein binding ratio (B %) was calculated according to the following equation: B%=(Cp−Cf)/Cp×100 where Cp and Cf are the total plasma concentration and the free concentration of compound, respectively.

S. pyogenes ATCC 49399 = test: MIC determination; format: cell-based; conditions: Streptococcus pyogenes, ATCC49399
Text: (§1) The ESKAPE organisms (E. faecium NCTC (ATCC 19734), S. aureus ATCC 29213, K. pneumonia ATCC 700603, A. baumannii ATCC 17961, P. aeruginosa ATCC 17853, E. aerogenes ATCC 35029) and E. coli ATCC 25922) in the initial screen, S. aureus ATCC 27660, S. epidermis ATCC 35547, S. haemolyticus ATCC 29970, S. oralis ATCC 9811, S. pyogenes ATCC 49399, B. cereus ATCC 13061, B. licheniformis ATCC 12759, and E. faecalis ATCC 29212 were purchased from the American Type Culture Collection (Manassas, Va., USA). S. aureus strains NRS100, NRS119, NRS120, VRS1, and VRS2 were obtained from the Network on Antimicrobial Resistance in Staphylococcus aureus (Chantilly, Va., USA). E. faecalis strains 201 and 99, and E. faecium strains 119-39A and 106 were collected from Wayne State University School of Medicine.
(§2) The procedure for MIC determination was the same as previously reported (Tran et al., Am. J. Clin. Dermatol. 2015; doi 10.1007/S40257-015-0125-9).

B. cereus ATCC 13061 = test: MIC determination; format: cell-based; conditions: Bacillus cereus, ATCC13061
Text: as §1, §2

S. aureus NRS100 (COL) = test: MIC determination; format: cell-based; conditions: Staphylococcus aureus
Text: as §1, §2

S. epidermis ATCC 35547 = test: MIC determination; format: cell-based
Text: as §1, §2

[2] = system: S. haemolyticus ATCC 29970; test: MIC determination; format: cell-based; conditions: Staphylococcus haemolyticus, ATCC29970
Text: as §1, §2

S. aureus VRS1 = test: MIC determination; format: cell-based; conditions: Staphylococcus aureus
Text: as §1, §2

S. oralis ATCC 9811 = test: MIC determination; format: cell-based; conditions: Streptococcus oralis, ATCC9811
Text: as §1, §2

HepG2 cells = test: XTT cytotoxicity assay; format: cell-based; conditions: for IC50: Homo sapiens
Protocol: We used the XTT assay with HepG2 cells to evaluate the in vitro toxicity of compounds 60b, 60c, 65b, 66b, 75b and 76b (Table 2). […] Compared to the lead 1, indole 75b was 5-fold less toxic.
The XTT cytotoxicity assay was performed in triplicated using HepG2 cells (ATCC HB-8065), as previously described (Tran et al., Am. J. Clin. Dermatol. 2015; doi 10.1007/S40257-015-0125-9). The IC50 values were calculated with GraphPad Prism 5 (GraphPad Software, Inc., San Diego, Calif., USA).

[3] = mecA positive, resistant to methicillin, oxacillin, tetracycline, Tables 1 and 5, read-out: MIC
[4] = vancomycin-resistant MRSA (vanA) isolate from Michigan, Tables 1 and 5, read-out: MIC
[5] = HepG2 cells, cytotoxicity, read-out: XTT HepG2 IC50

Row | SMILES | Human plasma protein binding [1] | MIC (S. pyogenes ATCC 49399; Table 1, read-out: MIC) | MIC (B. cereus ATCC 13061; Tables 1 and 5, read-out: MIC) | MIC (S. aureus NRS100 (COL); [3]) | MIC (S. epidermis ATCC 35547; Tables 1 and 5, read-out: MIC) | MIC ([2]; Tables 1 and 5, read-out: MIC) | MIC (S. aureus VRS1; [4]) | MIC (S. oralis ATCC 9811; Table 1, read-out: MIC) | IC50 (HepG2 cells; [5]) | MIC (S. pyogenes ATCC 49399) | MIC (B. cereus ATCC 13061) | MIC (S. aureus NRS100 (COL)) | MIC (S. epidermis ATCC 35547) | MIC [2] | MIC (S. aureus VRS1; MRSA) | MIC (S. oralis ATCC 9811) | IC50 (HepG2 cells; HepG2, read-out: XTT HepG2 IC50) | fold less toxic than the lead 1 (HepG2 cells; XTT assay, HepG2 cells)
1 | Oc1ccc(-c2nc(-c3ccc(Oc4ccc(C(F)(F)F)cc4)cc3)no2)cc1 [Compound 1] | 99.9 ± 0.1% | 32 µg/mL (≈ 80.3 µM) | 2 µg/mL (≈ 5.02 µM) | 2 µg/mL (≈ 5.02 µM) | 2 µg/mL (≈ 5.02 µM) | 2 µg/mL (≈ 5.02 µM) | 2 µg/mL (≈ 5.02 µM) | 32 µg/mL (≈ 80.3 µM) | 25.8 µg/mL (≈ 64.8 µM) |  |  |  |  |  |  |  |  | 
2 | FC(F)(F)c1ccc(Oc2ccc(-c3noc(-c4n[nH]cc4Cl)n3)cc2)cc1 [Compound 60b, 5-(4-Chloro-1H-pyrazol-3-yl)-3-(4-(4-(trifluoromethyl)phenoxy)phenyl)-1,2,4-oxadiazole] | 97.8 ± 0.3% | > 128 µg/mL | > 128 µg/mL | > 128 µg/mL | > 128 µg/mL | > 128 µg/mL | 1 to 2 µg/mL (≈ 2.46 to 4.92 µM) | > 128 µg/mL | 24.1 ± 1.6 µg/mL (≈ 59.3 µM) |  |  |  |  |  |  |  |  | 
3 | Fc1ccc(Oc2ccc(-c3noc(-c4n[nH]cc4Cl)n3)cc2)cc1 [Compound 60c, 5-(4-Chloro-1H-pyrazol-3-yl)-3-(4-(4-fluorophenoxy)phenyl)-1,2,4-oxadiazole] | 94.5 ± 2.1% | > 128 µg/mL | > 128 µg/mL | > 128 µg/mL | > 128 µg/mL | > 128 µg/mL | 1 µg/mL (≈ 2.8 µM) | > 128 µg/mL | 18.2 ± 2.9 µg/mL (≈ 51 µM) |  |  |  |  |  |  |  |  | 
4 | CC(C)Nc1c[nH]nc1-c1nc(-c2ccc(Oc3ccc(C(F)(F)F)cc3)cc2)no1 [Compound 65b, N-Isopropyl-3-(3-(4-(4-(trifluoromethyl)phenoxy)phenyl)-1,2,4-oxadiazol-5-yl)-1H-pyrazol-4-amine] | 91.6 ± 0.3% |  |  |  |  |  |  |  |  | > 128 µg/mL | > 128 µg/mL | > 128 µg/mL | > 128 µg/mL | > 128 µg/mL | 1 µg/mL (≈ 2.33 µM) | > 128 µg/mL | 3.9 ± 0.8 µg/mL (≈ 9.08 µM) | 
5 | C#Cc1c[nH]nc1-c1nc(-c2ccc(Oc3ccc(C(F)(F)F)cc3)cc2)no1 [Compound 66b, 5-(4-Ethynyl-1H-pyrazol-3-yl)-3-(4-(4-(trifluoromethyl)phenoxy)phenyl)-1,2,4-oxadiazole] | 96.4 ± 2.7% | > 128 µg/mL | > 128 µg/mL | > 128 µg/mL | > 128 µg/mL | > 128 µg/mL | 1 µg/mL (≈ 2.52 µM) | > 128 µg/mL | 9.8 ± 4 µg/mL (≈ 24.7 µM) |  |  |  |  |  |  |  |  | 
6 | FC(F)(F)c1ccc(Oc2ccc(-c3noc(-c4ccc5[nH]ccc5c4)n3)cc2)cc1 [Compound 75b, 5-(1H-Indol-5-yl)-3-(4-(4-(trifluoromethyl)phenoxy)phenyl)-1,2,4-oxadiazole] | 98.2±3.2% | 64 µg/mL (≈ 152 µM) | 16 µg/mL (≈ 38 µM) |  |  | 8 µg/mL (≈ 19 µM) | 1 µg/mL (≈ 2.37 µM) | 128 µg/mL (≈ 304 µM) | 75.7 ± 7.3 µg/mL (≈ 180 µM) |  |  |  |  |  |  |  |  | 5 fold
7 | FC(F)(F)c1ccc(Oc2ccc(-c3noc(-c4c[nH]cn4)n3)cc2)cc1 [Compound 76b, 5-(1H-Imidazol-4-yl)-3-(4-(4-(trifluoromethyl)phenoxy)phenyl)-1,2,4-oxadiazole] | 93.5 ± 2.4% | 128 µg/mL (≈ 344 µM) |  | 32 µg/mL (≈ 86 µM) | 32 µg/mL (≈ 86 µM) | 16 µg/mL (≈ 43 µM) | 1 µg/mL (≈ 2.69 µM) | > 128 µg/mL | 31.5 ± 0.5 µg/mL (≈ 84.6 µM) |  |  |  |  |  |  |  |  | 
